Patent US20210386761A1, “COMPOSITION FOR PREVENTING OR TREATING INFLAMMATORY BOWEL DISEASE, CONTAINING, AS ACTIVE INGREDIENT, TAURODEOXYCHOLIC ACID OR PHARMACEUTICALLY ACCEPTABLE SALT THEREOF” (SHAPERON INC., priority 2019, published 2021)

Assays:
[1] = tested on: inflammatory bowel disease-induced mouse model (DSS); assay: Clinical symptom analysis (body weight, DAI, survival) in 2% DSS inflammatory bowel disease-induced mouse model; assay type: in vivo
Method: An inflammatory bowel disease-induced mouse model using dextran sodium sulfate (DSS) was prepared by the following method.
Specifically, male C57BL/6 mice (7 to 12 weeks old, body weight of 18 to 30 g) were adapted for one week and used in the experiment. Animal rearing was carried out under the conditions of a temperature of 25° C. and a day and night cycle (12 hours night/12 hours daytime), and feed and drinking water were freely fed. All the animals were managed according to the guidelines for use of experimental animals of Seoul National University IACUC (IACUC: SNU-151223-4-1). On the day of administration of DSS (MP Biomedicals, Santa Ana, Calif., USA) (Day 0), mice were weighed and marked on the tail.
Next, male C57BL/6 mice were fed with a 2% DSS solution together with drinking water from Day 0 of the experiment to induce inflammatory bowel disease. DPBS or 10, 5, 2.5, or 1 mg/kg sodium taurodeoxycholic acid (TDCA) was administered in 0.1 ml by oral gavage one time a day from Day 1 of the experiment. Alternatively, 0.1 ml of 5 mg/kg TDCA was administered one time a day by oral gavage 2 days before DSS administration.
The 2% DSS solution was used after being prepared by dissolving DSS powder in sterilized distilled water and filtering the solution. The TDCA was dissolved in DPBS (Dulbecco's phosphate-buffered saline) and used.
The disease activity indexes (DAI) including body weight, body weight loss, stool consistency, and bloody stool were measured daily. DAI was scored according to the following [Table 1].
(§1) Specifically, female C57BL/6 mice were fed with a 2% DSS solution or DPBS together with drinking water for 10 days from Day 0 of the experiment by the same method as that described in <Example 1>, DPBS or 5 mg/kg TDCA was administered to the mice by oral gavage one time a day for 11 days from Day 1 of the experiment, and the body weight and DAI were measured daily. As a control, mice freely fed with drinking water were used.
Specifically, female C57BL/6 mice were fed with a 2% DSS solution or DPBS together with drinking water for 10 days from Day 0 of the experiment by the same method as that described in <Example 1>, DPBS or 10, 5, 2.5, or 1 mg/kg TDCA was administered to the mice by oral gavage one time a day for 11 days from Day 1 of the experiment, and the body weight and DAI were measured daily. As a control, mice freely fed with drinking water were used.
Specifically, female C57BL/6 mice were fed with a 2% DSS solution together with drinking water for 7 days from Day 0 of the experiment by the same method as that described in <Example 1>, DPBS or 5 mg/kg TDCA was administered to the mice by oral gavage from Day 1 of DSS administration or 2 days before DSS administration, and the body weight and DAI were measured daily. As a control, mice freely fed with drinking water were used.
as §1, with “Specifically, C57BL/6-Gpbar1^tm1(KOMP)Vlcg mice (TGR5 KO, KOMP Repository, The Knockout Mouse Project, University of California, Davis, Calif.) were used as TGR5 knockout (TGR5^−/−) female C57BL/6 mice. The TGR5^−/− female C57BL/6 mice or TGR5 normal (WT)” for “Specifically,”, “1>.” for “1>,”

[2] = tested on: inflammatory bowel disease-induced mouse model (DSS); assay: Histopathological symptom analysis (colon length, histological state and score) in 2% DSS mouse model; assay type: in vivo
Method: After the experiment was completed, the mice were euthanized with CO2 and the bowels were excised. Next, the bowels were put in cold 1×DPBS and the remaining mesenteric adipose tissue was isolated. At this time, the colon length was measured. Next, the tail end of the colon was opened and wound up with scissors to obtain colon tissue. The obtained colon tissue was fixed in 10% neutral buffered formalin (Sigma-Aldrich, HT501128-4L, St. Louis, Mo., USA) at room temperature for 48 hours and then treated in a tissue processor (Excelsior ES, Thermo scientific, Waltham, Mass., USA) for 12 hours. The processed tissue was sectioned and paraffinized using a microtome (Microm, HM 340E, Thermo Scientific, Waltham, Mass., USA) and an embedding system (HistoStar, Thermo Scientific, Waltham, Mass., USA). Next, the processed tissue was stained with hematoxylin and eosin, and visualized under an optical microscope (Motic, BA310, Redding, Calif., USA) to confirm the histopathological state, and the histopathological state was scored to histological score according to the criteria in the following [Table 2].
Specifically, female C57BL/6 mice were fed with a 2% DSS solution or DPBS together with drinking water for 7 days from Day 0 of the experiment by the same method as that described in <Example 1>, DPBS or 5 mg/kg TDCA was administered to the mice by oral gavage one time a day for 6 days from Day 1 of the experiment, and the body weight and DAI were measured daily. As a control, mice freely fed with drinking water were used. Next, the mice were sacrificed on Days 5 and 7 of the experiment by the same method as that described in <Example 2>, and histopathological symptom analysis was performed.
Specifically, female C57BL/6 mice were fed with a 2% DSS solution or DPBS together with drinking water for 7 days from Day 0 of the experiment by the same method as that described in <Example 1>, DPBS or 10, 5, 2.5, or 1 mg/kg TDCA was administered to the mice by oral gavage one time a day for 6 days from Day 1 the experiment, and the body weight and DAI were measured daily. As a control, mice freely fed with drinking water were used.
Next, the mice were sacrificed on Day 8 of the experiment by the same method as that described in <Example 2>, and histopathological symptom analysis was performed.
The mice were sacrificed on Day 8 of the experiment by the same method as that described in <Example 2>, and the colon length was measured.

[3] = 2% DSS 7 days, 5 mg/kg TDCA oral gavage, FIG. 2B
[4] = 2% DSS 7 days, 10, 5, 2.5, or 1 mg/kg TDCA, Day 8, FIG. 5B

Q: With `C[C@H](CCC(=O)NCCS(=O)(=O)O)[C@H]1CC[C@H]2[C@@H]3CC[C@@H]4C[C@H](O)CC[C@]4(C)[C@H]3C[C@H](O)[C@]12C` [TDCA, sodium taurodeoxycholic acid] as the compound, how does the “initial body weight lost on Day 10” value ([1]; 2% DSS 10 days, 5 mg/kg TDCA oral gavage one time a day for 11 days from Day 1, DSS+DPBS group about 15%, FIG. 1A) read?
A: The value was “about 5%”.

Q: And the survival rate ([1]; 2% DSS 10 days, 5 mg/kg TDCA oral gavage one time a day, DSS+DPBS group 60%, FIG. 1C)?
A: Its survival rate is 100%.

Q: And the “start of body weight loss later than the DSS+DPBS group” value ([1]; 2% DSS 10 days, 5 mg/kg TDCA oral gavage one time a day, FIG. 1A)?
A: Its value is “about 2 days”.

Q: What about the “DAI (disease activity index) change” value ([1]; 2% DSS 10 days, 5 mg/kg TDCA oral gavage one time a day, FIG. 1B) of the same compound?
A: Its value is “lower than that in the DSS+DPBS group”.

Q: What about the DAI change ([1]; 2% DSS 10 days, 10, 5, 2.5, or 1 mg/kg TDCA, FIG. 4B) of the same compound?
A: Its DAI change is “lower than that in the DSS+DPBS group”.

Q: What about the “degree of alleviation of body weight loss” value ([1]; 2% DSS 10 days, TDCA at 5 and 10 mg/kg, among 10, 5, 2.5, 1 mg/kg, FIG. 4A) of the same compound?
A: The value was “superior”.

Q: And the DAI change ([1]; 2% DSS 10 days, TDCA at 10, 5, and 2.5 mg/kg, among 10, 5, 2.5, 1 mg/kg, FIG. 4B)?
A: Its DAI change is “DAI was lower”.

Q: And the DAI change ([1]; DSS+TDCA group: 5 mg/kg TDCA from Day 1 of DSS administration, 2% DSS 7 days, FIG. 6B)?
A: The DAI change was “similarly decreased”.

Q: And the DAI change ([1]; DSS+preTDCA group: 5 mg/kg TDCA from 2 days before DSS administration, 2% DSS 7 days, FIG. 6B)?
A: The DAI change was “similarly decreased”.

Q: What about the “initial body weight lost on Day 10” value ([1]; TGR5 normal (WT) mice, 2% DSS 10 days, 5 mg/kg TDCA oral gavage one time a day, FIG. 8A) of the same compound?
A: Its value is “about 5%”.

Q: And the DAI change ([1]; TGR5 normal (WT) mice, 2% DSS 10 days, 5 mg/kg TDCA, FIG. 8B)?
A: Its DAI change is “lower than those in the other groups”.

Q: And the survival rate ([1]; TGR5 normal (WT) mice, 2% DSS 10 days, 5 mg/kg TDCA, FIG. 8C)?
A: Its survival rate is 100%.

Q: And the colon length change ([2]; 2% DSS 7 days, 5 mg/kg TDCA oral gavage one time a day for 6 days, FIG. 2A)?
A: Its colon length change is “the decrease in colon length was slight”.

Q: What about the average histological score ([2]; 2% DSS 7 days, 5 mg/kg TDCA oral gavage, DSS+DPBS group about 7, FIG. 2C) of the same compound?
A: The average histological score was “about 4”.

Q: And the “epithelial cell defects (histological state)” value [2, 3]?
A: The value was “not observed”.

Q: And the “infiltration of inflammatory cells into the mucous membrane” value [2, 3]?
A: The value was “slight”.

Q: And the ulcer ([2]; 2% DSS 7 days, 5 mg/kg TDCA oral gavage, FIG. 2C)?
A: Its ulcer is “the ulcer was alleviated”.

Q: And the colon length change ([2]; 2% DSS 7 days, 10, 5, 2.5, or 1 mg/kg TDCA, Day 8, FIG. 5A)?
A: Its colon length change is “the decrease in colon length was slight”.

Q: And the “epithelial cell defects (histological state)” value [2, 4]?
A: Its value is “not observed”.

Q: What about the “infiltration of inflammatory cells into the mucous membrane” value [2, 4] of the same compound?
A: The value was “alleviated”.

Q: And the colon length change ([2]; 2% DSS 7 days, TDCA at 5 and 10 mg/kg, Day 8, FIG. 5A)?
A: The colon length change was “the decrease in colon length was slighter”.

Q: And the average histological score ([2]; 2% DSS 7 days, TDCA at 5 and 10 mg/kg, Day 8, FIG. 5C)?
A: Its average histological score is “about 4”.

Q: And the ulcer alleviating effect ([2]; 2% DSS 7 days, TDCA at 5 and 10 mg/kg, Day 8, FIGS. 5B and 5C)?
A: The ulcer alleviating effect was “superior”.

Q: What about the colon length change ([2]; DSS+TDCA group: 5 mg/kg TDCA from Day 1 of DSS, Day 8, FIG. 6C) of the same compound?
A: The colon length change was “the decrease in colon length was suppressed”.

Q: And the colon length change ([2]; DSS+preTDCA group: 5 mg/kg TDCA from 2 days before DSS, Day 8, FIG. 6C)?
A: The colon length change was “the decrease in colon length was suppressed”.
